# Patent US9210927B2, “Pesticidal compositions and processes related thereto” (Dow AgroSciences LLC, priority 2013, dated 2015)
# Assays:
# Format in all cases: in vivo
# CEW (Helicoverpa zea) = assay: Bioassays on Corn Earworm (CEW), 128-well diet tray assay; details: Helicoverpa zea, 168 h; percent mortality, second instar larvae, 50 μg/cm^2 on artificial diet, five to seven days, 25° C.; read-out: CEW Rating
# Method in brief: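 Percent larval mortality, averaged across eight wells, read after five to seven days at 25 °C under 14:10 light-dark. Each well held one to five second-instar larvae on diet surface-dosed at 50 μg/cm^2 (compound applied in acetone-water 90:10, then dried).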
# BAW (Spodoptera exigua) = assay: Bioassays on Beet Armyworm (BAW), 128-well diet tray assay; details: Spodoptera exigua, 168 h, read-out: BAW Rating
# Method in brief: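 Diet surface dosed at 50 μg/cm^2 (acetone-water 90:10 vehicle), dried, then infested with second-instar larvae, one to five per well. After five to seven days at 25° C. under 14:10 light-dark, mortality per well was scored and averaged over eight wells.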
# GPA (Myzus persicae) = assay: Bioassays on Green Peach Aphid (GPA), foliar spray on cabbage seedlings; details: 72 h, corrected % control (Abbott), 200 ppm spray on cabbage seedlings, three days, read-out: GPA Rating
# Experimental: Bioassays on Green Peach Aphid (“GPA”) (Myzus persicae) Certain molecules disclosed in this document were tested against GPA using procedures described in the following example. In the reporting of the results, the “GPA Rating Table” was used (See Table Section). Cabbage seedlings grown in 3-inch pots, with 2-3 small (3-5 cm) true leaves, were used as test substrate. The seedlings were infested with 20-50 GPA (wingless adult and nymph stages) one day prior to chemical application. Four pots with individual seedlings were used for each treatment. Test compounds (2 mg) were dissolved in 2 mL of acetone/MeOH (1:1) solvent, forming stock solutions of 1000 ppm test compound. The stock solutions were diluted 5× with 0.025% Tween 20 in H2O to obtain the solution at 200 ppm test compound. A hand-held aspirator-type sprayer was used for spraying a solution to both sides of […] leaves until runoff. Reference plants (solvent check) were sprayed with the diluent only containing 20% by volume of acetone/MeOH (1:1) solvent. Treated plants were held in a holding room for three days at approximately 25° C. and ambient relative humidity (RH) prior to grading. Evaluation was conducted by counting the number of live aphids per plant under a microscope. Percent Control was measured by using Abbott's correction formula (W. S. Abbott, “A Method of Computing the Effectiveness of an Insecticide” J. Econ. Entomol. 18 (1925), pp. 265-267) as follows. Corrected % Control=100*(X−Y)/X • where • X=No. of live aphids on solvent check plants and • Y=No. of live aphids on treated plants The results are indicated in the table entitled “Table 3: Assay Results” (See Table Section).
SMILES,pest or weed control at 50 µg/cm2 (CEW (Helicoverpa zea)),pest or weed control at 50 µg/cm2 (BAW (Spodoptera exigua)),pest or weed control at 200 ppm (GPA (Myzus persicae))
O=C(NCc1ccc(/C=C/C(c2cc(Cl)c(Cl)c(Cl)c2)C(F)(F)F)cc1Cl)C1CC1 (stereo not drawn) [CC11],50 to 100%,50 to 100%,0 to 80%
O=C(NCc1ccc(/C=C/C(c2cc(Cl)c(F)c(Cl)c2)C(F)(F)F)cc1Cl)C1CC1 (stereo not drawn) [CC15],50 to 100%,50 to 100%,0 to 80%
O=C(NCc1ccc(/C=C/C(c2ccc(Cl)c(Cl)c2)C(F)(F)F)cc1Cl)C1CC1 (stereo not drawn) [CC17],50 to 100%,50 to 100%,0 to 80%
O=C(CC(F)(F)F)NCc1ccc(/C=C/C(c2ccc(Cl)c(Cl)c2)C(F)(F)F)cc1Cl (stereo not drawn) [CC18],50 to 100%,50 to 100%,0 to 80%
CSCCC(=O)NCc1ccc(/C=C/C(c2cc(Cl)c(Cl)c(Cl)c2)C(F)(F)F)cc1Cl (stereo not drawn) [CC19],50 to 100%,50 to 100%,0 to 80%
O=C(NCc1ccc(/C=C/C(c2cc(Cl)c(Cl)c(Cl)c2)C(F)(F)F)cc1C(F)(F)F)C1CC1 (stereo not drawn) [CC22],50 to 100%,50 to 100%,0 to 80%
O=C(NCc1ccc(/C=C/C(c2cc(Cl)c(Cl)c(Cl)c2)C(F)(F)F)cc1C(F)(F)F)c1cccnc1 (stereo not drawn) [CC23],50 to 100%,50 to 100%,0 to 80%
O=C(CC(F)(F)F)NCc1ccc(/C=C/C(c2cc(Cl)c(Cl)c(Cl)c2)C(F)(F)F)cc1Br (stereo not drawn) [CC25],50 to 100%,50 to 100%,0 to 80%
"O=C(C1CC1)N(Cc1ccccn1)Cc1ccc(/C=C/C(c2cc(Cl)c(Cl)c(Cl)c2)C(F)(F)F)cc1C(F)(F)F (stereo not drawn) [CC29, (E)-N-(Pyridin-2-ylmethyl)-N-(4-(4,4,4-trifluoro-3-(3,4,5-trichlorophenyl)but-1-enyl)-2-(trifluoromethyl)benzyl)cyclopropanecarboxamide]",50 to 100%,50 to 100%,0 to 80%
CCNC(=O)NCc1ccc(/C=C/C(c2cc(Cl)c(Cl)c(Cl)c2)C(F)(F)F)cc1C(F)(F)F (stereo not drawn) [CC32],50 to 100%,50 to 100%,0 to 80%
CCNC(=O)NCc1ccc(/C=C/C(c2cc(Cl)c(Cl)c(Cl)c2)C(F)(F)F)cc1Br (stereo not drawn) [CC33],50 to 100%,50 to 100%,0 to 80%
O=C(NCc1ccc(/C=C/C(c2cc(Cl)c(Cl)c(Cl)c2)C(F)(F)F)cc1Cl)N1CCOCC1 (stereo not drawn) [CC34],50 to 100%,50 to 100%,0 to 80%
"FC(F)(F)C(/C=C/c1ccc(CNc2ccccn2)c(Cl)c1)c1cc(Cl)c(Cl)c(Cl)c1 (stereo not drawn) [CC43, (E)-N-(2-Chloro-4-(4,4,4-trifluoro-3-(3,4,5-trichlorophenyl)but-1-en-1-yl)benzyl)pyridin-2-amine]",0 to 50%,50 to 100%,0 to 80%
"O=C(CC(F)(F)F)NCc1ncc(/C=C/C(c2cc(Cl)c(Cl)c(Cl)c2)C(F)(F)F)cc1Cl (stereo not drawn) [CC44, (E)-N-((3-Chloro-5-(4,4,4-trifluoro-3-(3,4,5-trichlorophenyl)-but-1-en-1-yl)pyridin-2-yl)methyl)-3,3,3-trifluoropropanamide]",50 to 100%,50 to 100%,0 to 80%
FC(F)(F)C(/C=C/c1ccc(-n2cncn2)cc1)c1ccc(Cl)c(Cl)c1 (stereo not drawn) [DC12],50 to 100%,50 to 100%,0 to 80%
COc1c(Cl)cc(C(/C=C/c2ccc(-n3cncn3)c(C#N)c2)C(F)(F)F)cc1Cl (stereo not drawn) [DC34],50 to 100%,50 to 100%,0 to 80%
